{
  "source": "patent US9198942B1",
  "about": "“Method of preparing bioactive compound from solid-state cultivated Antrodia cinnamomea mycelium for anti-metastasis against lung cancer cells” (TAIWAN LEADER BIOTECH CORP., priority 2014, dated 2015)",
  "type_in_all_cases": "cell-based, human",
  "key": {"[1]": {"system": "A549 lung cancer cells", "assay": "MTT survival rate of A549 cells", "conditions": "A549, 0~40 μM, 24 hr", "method": "(§1) The present invention selects a human lung cancer cell, A549, for exploring lung cancer cell metastasis. For culturing A549, the A549 cells grown in 75 T flask are replanted in a 10 square-centimeter (cm^2) dish at a seeding density of 2×10^5 cells per square-centimeter (cells/cm^2) to be cultured at 37 Celsius degrees (° C.) in an incubator having 5% carbon dioxide (CO2). The culture medium used is Ham's F12 (which is recommended by Bioresources Collection and Research Center (BCRC), Taiwan, and American Type Culture Center (ATCC)) and is added with extra 10% fetal bovine serum. State-of-Use 2: Preparing Extracts of Solid-State Cultivated Antrodia cinnamomea Mycelium\nAt first, A549 cells are cultured as described in state-of-use 1. After being washed with tripsin, the cells are replanted for 24 hr in a dish having 24 wells at a seeding density of 2×10^5 cells/cm^2. In Table 1, Leader 1 having a concentration of 0, 5, 10, or 40 μM is cultured for 24 hr to be applied to A549, where Leader 1 having 0 μM is added with DMSO to be used as a control group. […] Then, the cell membrane and the blue-violet crystals are dissolved with DMSO to acquire light-absorbance rates with a wavelength of 570 nm for forming a statistical diagram by using sigma plot 10.0."}, "[2]": {"system": "A549 lung cancer cells", "assay": "Matrigel transwell invasion of A549 cells", "conditions": "A549, 5-40 μM for 24 hr, 12 or 24 hr, especially 40 μM", "method": "The 24-well kit is used for analyzing lung cancer cell invasion. The kit is prepared by injecting Matrigel (3 mg/ml-well, BD science) into the upper layer of the kit, to be placed in an incubator for 24 hr and, then, process solidification.\nAt first, lung cancer cells A549 are cultured as described in state-of-use 1. After being washed down with tripsin, the cells are replanted in a 6-well plate at a seeding density of 2×10^5 cells/cm^2 for 24 hr for attachment. After being added into media having concentrations of 0, 5, 10 and 40 μM of Leader 1 for 24 hr, the cells are rinsed with PBS and, then, dropped down with tripsin. The cells are loaded into centrifuge tubes for centrifugal rotation at a speed of 1280 rpm for 3 min to remove supernatant. Residual serum is slowly removed by washing with PBS. Then, centrifugal rotations are processed at a speed of 1280 rpm for 3 min. The cells are added at a density of 2×10^5 cells/cm^2 into culture media, where the media are located at the upper layer and injected with a 200 μl solution containing only 0.1% fetal bovine serum. Another media are located at the lower layer and contain 20% fetal bovine serum. The kit is put in an incubator to be observed after 12 or 24 hr.\n(§2) The kit is soaked in methanol and stayed still for 20 min to be dried afterwards. Then, the kit is soaked in Gimsa to be dyed for 20 min. […]"}, "[3]": {"system": "urokinase-type plasminogen activator (uPA)", "assay": "Casein-plasminogen zymography of uPA activity in A549 cells", "conditions": "A549, 5-40 μM for 24 hr; especially 40 μM", "method": "Electrophoresis is used for detecting hydrolytic enzymes. The part regarding plasminogen in casein-zymography is used for analyzing activity of urokinase-type plasminogen activator (uPA) of lung cancer cells, where uPA would decompose plasminogen into plasmin.\n(§3) At first, lung cancer cells A549 are cultured as described in state-of-use 1. After being washed down with tripsin, the cells are replanted in a 12-well plate at a seeding density of 2×10^5 cells/cm^2 for 24 hr for attachment. Then, the kit is rinsed with PBS two times. After being added into media having concentrations of 0, 5, 10 and 40 μM of Leader 1 for 24 hr, the cells are added into media having 1% fetal bovine serum for 24 hr for obtaining culture media containing the cells. The kit is put into an Eppendorf centrifuge tube for centrifugal rotation at a 1250 rpm speed for 10 min. Then, the supernatant is taken out to be stored at −20° C.\nAn equivalent amount of the supernatant is added into 8%-gradient colloidal wells of gel (containing 15 μl/ml plasminogen and 1 mg/ml gelatin) with a 6-times MMP dye. A running buffer is added and reaction stops after 45 kD of a MMP marker is resolved into the gel with a current of 80 V and 300 mA.\n(§4) The gel is taken out for reaction in a zymography renaturing buffer at a 35 rpm speed. The reaction is done for 2 times at a room temperature and it takes 30 min for each time. […]"}, "[4]": {"system": "related proteases and proteins that promote metastasis (p-Akt, E-cadherin, MMP-2,9, TIMP-1)", "assay": "Western blot of metastasis-related proteases and proteins in lung cancer cells", "conditions": "β-actin as control", "method": "After total proteins of the cell are obtained, an equivalent amount of proteins are added to 8-10% gradient electrophoresis gel wells at a current of 80 V and 300 mA for 240 min for separating the total proteins. The total proteins sorted according to their sizes are blotted on a polyvinylidene difluoride (PVDF) membrane at a condition using a 100 V current for 2 hr. Then, the PVDF membrane is reacted with a blocking buffer for 1 hr. Therein, the blocking buffer contains 10% w/v skim milk powder in a TBS-T buffer, and the TBS-T buffer contains a TBS buffer having 0.1% Tween 20.\nThereafter, the PVDF membrane is immersed in an antibody solution of actin (Cell signaling Co.); an antibody solution of p-Akt or protein kinase B (1:1000, Cell signaling Co.); an antibody solution of E-cadherin (1:1000, Cell signaling Co.); an antibody solution of MMP-2,9 in matrix metalloproteinase (1:1000, Santa Cruz Co.); and an antibody solution of TIMP-1 (1:1000, Cell signaling Co.). […]\nThen, the PVDF membrane is immersed in an anti-mouse secondary antibody solution having horseradish peroxidase and an anti-rabbit secondary antibody solution for reaction at a room temperature for 1˜2 hr. […] Then, an enhanced chemiluminescene (ECL) regent is used to detect fluorescence intensity, where β-actin protein is used as a control group of expression for statistical mapping with sigma plot 10.0."}, "[5]": {"system": "matrix metalloproteinase (MMP-2, MMP-9)", "assay": "Gelatin zymography of gelatinase activity in A549 cells", "conditions": "A549, 5-40 μM for 24 hr; especially 40 μM", "method": "Electrophoresis is used to detect hydrolytic enzymes. Gelatin zymography is used to analyze activities of gelatinases (MMP-2, MMP-9) in matrix metalloproteinase (MMP) of lung cancer cells.\nas §3\nAn equivalent amount of the supernatant is added into 8%-gradient colloidal wells of gel (SDS-PAGE, containing 1 mg/ml gelatin) with a 6-times MMP dye. A running buffer is added and reaction stops after 45 kD of a MMP marker is resolved into the gel with a current of 80 V and 300 mA.\nas §4"}, "[6]": {"system": "A549 lung cancer cells", "assay": "Transwell migration of A549 cells", "conditions": "A549, 5-40 μM for 24 hr, with or without TNF-α induction, 12 or 24 hr; especially 40 μM", "method": "24-well transwell kits (Millipore Co.) are used for analyzing lung cancer cell migration.\nAt first, lung cancer cells A549 are cultured as described in state-of-use 1. After being washed down with tripsin, the cells are replanted in a 12-well plate at a seeding density of 2×10^5 cells/cm^2 for 24 hr for attachment. After being added into media having concentrations of 0, 5, 10 and 40 μM of Leader 1 for 24 hr, the cells are rinsed with PBS and, then, dropped down with tripsin. The cells are loaded into centrifuge tubes for centrifugal rotation at a speed of 1280 rpm for 3 min to remove supernatant. Residual serum is removed by slow-washing with PBS. Then, centrifugal rotations are processed at a speed of 1280 rpm for 3 min. The cells are added into culture media at a density of 2×10^5 cells/cm^2, where the media are located at an upper layer of the kit and injected with a 200 μl solution containing only 0.1% fetal bovine serum. Another media are located at a lower layer of the kit and containing 20% fetal bovine serum (induced or not induced with TNF-α). The kit having the two layers of media is put in an incubator to be observed after 12 or 24 hr.\nas §2"}, "[7]": {"system": "A549 lung cancer cells", "assay": "Wound healing of A549 cells", "conditions": "A549, 5-40 μM, observed at 0, 12, 24 or 48 hr; especially 40 μM", "method": "as §1\nAt first, lung cancer cells A549 are cultured as described in state-of-use 1. After being washed down with tripsin, the cells are replanted in a 12-well plate at a seeding density of […] for 24 hr for attachment. Then, a wound line is made in each well. After floating part of the cells are removed by being slight-washed with PBS, the cells are added to culture media having concentrations of 0, 5, 10, 20 and 40 μM of Leader 1 for observation at time points of 0, 12, 24 or 48 hr to be photographed as records, where a medium dosed with 0 μM of DMSO is used as a control group."}},
  "data": [
    {"compound": "COc1cc(C)c(OC)c(OC)c1O", "note": "[Leader 1, 2,3,6-trimethoxy-4-methylphenol]", "values": [
      {"measurement": "survival rate of lung cancer cells (cytotoxicity)", "setting": "[1]", "value": "no cytotoxicity to lung cancer cells"},
      {"measurement": "suppressing invasion of lung cancer cells", "setting": "[2]", "value": "shows ability on suppressing invasion of lung cancer cells"},
      {"measurement": "suppressing plasminogen activator of lung cancer cells", "setting": "[3]", "value": "shows activity on suppressing plasminogen activator of lung cancer cells"},
      {"measurement": "suppressing related proteases and proteins that promote metastasis of lung cancer cells", "setting": "[4]", "value": "shows ability on suppressing related proteases and proteins that promote metastasis of lung cancer cells"},
      {"measurement": "suppressing matrix metalloproteinase (MMP-2, MMP-9) activity of lung cancer cells", "setting": "[5]", "value": "shows ability on suppressing matrix metalloproteinase (MMP-2, MMP-9) activity of lung cancer cells"},
      {"measurement": "suppressing migration of lung cancer cells", "setting": "[6]", "value": "shows activity on suppressing migration of lung cancer cells"},
      {"measurement": "suppressing wound healing of lung cancer cells", "setting": "[7]", "value": "shows its ability on suppressing wound healing of lung cancer cells"}
    ]}
  ]
}
